Laboratory results from patent US7250434B2, “CCK-1 receptor modulators” (Janssen Pharmaceutica N.V., priority 2003, dated 2007).

Biological target: T1, CCK-1 receptor (Homo sapiens, UniProt P32238)
T1 construct: expressed in transfected cells; membranes
T1 sequence (P32238 1-428): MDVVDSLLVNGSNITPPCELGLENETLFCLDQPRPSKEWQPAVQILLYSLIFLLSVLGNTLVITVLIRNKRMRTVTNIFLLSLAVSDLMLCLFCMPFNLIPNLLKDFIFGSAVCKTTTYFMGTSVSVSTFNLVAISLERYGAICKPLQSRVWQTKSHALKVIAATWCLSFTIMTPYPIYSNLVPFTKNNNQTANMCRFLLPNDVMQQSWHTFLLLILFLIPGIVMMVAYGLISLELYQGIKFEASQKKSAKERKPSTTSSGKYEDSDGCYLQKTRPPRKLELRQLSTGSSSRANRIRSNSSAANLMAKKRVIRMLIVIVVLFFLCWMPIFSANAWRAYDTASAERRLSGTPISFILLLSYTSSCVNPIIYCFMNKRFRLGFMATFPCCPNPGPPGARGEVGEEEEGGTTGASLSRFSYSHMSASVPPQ
Test: [125I]-BH-CCK-8S competition binding to membranes of CHO-K1 cells stably transfected with the CCK-1 receptor
Settings: membranes of CCK-1 transfected CHO-K1 cells; 20 pM [125I]-BH-CCK-8S; 0.3 μM PD-134,308 present; 60 min at 21±3° C.; Cheng-Prusoff
Description: CHO-K1 cells that had undergone stable transfection with the CCK-1 receptor were grown in DMEM supplemented with L-glutamine (2 mM), penicillin (50 units/mL) and streptomycin (50 μg/mL). Cells were cultured under continuous G418 selection (2 mM) and were harvested using a rubber cell scraper. CHO-K1 cells were sub-cultured a maximum of ten times before being reseeded from the original stocks.
Membranes were prepared from the stably transfected CHO-K1 cells. Frozen cell pellets (−40° C.) were thawed in 14 mL of buffer A (10 mM HEPES, 130 mM NaCl, 4.7 mM KCl, 5 mM MgCl, 1 mM EGTA and 15.4 mg/100 mL bacitracin at pH 7.2), adapted from Harper et al. (Br. J. Pharmacol. 1996, 118:1717-1726). The thawed pellets were homogenized using a Polytron PT-10 (7×1 s). The homogenates were centrifuged for 5 min at 1500 rpm (600×g), and the resulting pellets were discarded. The supernatants were re-centrifuged in order to collect the receptor-membrane pellets (25 min 15,000 rpm; 39,800×g), which were re-suspended in buffer A.
All assays were conducted in 96-well plates (GF/B millipore filter plates) using buffer A, with 0.3 μM PD-134,308, for the dilutions. The CCK-2 receptor ligand was included to eliminate the contribution of this receptor subtype to the binding. For the optimal cell number determination experiments 20 pM [^125I]-BH-CCK-8S (50 μL 60 pM solution) was incubated with a range of cell concentrations (2.5×105 to 12.5×10^5 cells/well) in a total volume of 150 μL. Total binding of [^125I]-BH-CCK-8S was determined in the presence of 15 μL of buffer A. Non-specific binding of [^125I]-BH-CCK-8S was determined in the presence of 15 μL of 100 μM 2-naphthalenesulphonyl L-aspartyl-(2-phenethyl)amide (2-NAP: see R. A. Hull et al. Br. J. Pharmacol. 1993, 108:734-740), a CCK-1 receptor selective antagonist that is structurally unrelated to the radioligand [^125I]-BH-CCK-8S. The assay preparation was incubated for 1 h at 21±3° C., and then the assay was terminated upon rapid filtration of the preparation under reduced pressure. The loaded filters were washed three times using undiluted PBS (100 μL), and then the residues were transferred to 5 mL scintillation tubes. Bound radioactivity was determined using a gamma counter (count time=1 min). From these experiments a cell concentration of 1 pellet in 40 mL of buffer (2.5×10^6 cells/mL) was chosen for use in other assays (below). To validate the radioligand concentration and incubation time for the assay, saturation and kinetic binding studies were also conducted (see M. F. Morton, The Pharmacological Characterization of Cholecystokinin Receptors in the Human Gastrointestinal Tract. PhD Thesis, University of London, 2000). The affinity of novel compounds was estimated by incubating membrane preparations with 15 μL of competing ligand (0.1 pM-1 mM) for 60 min at 21±3° C. The assay was then terminated according to the procedure outlined above.
The pKi values were determined using the equation of Y.-C. Cheng and W. H. Prusoff (Biochem. Pharmacol. 1973, 22(23):3099-3108):
[formula] To circumvent problems associated with computer-assisted data analysis of compounds with low affinity, the data obtained in the current study were weighted according to a method described by Morton (2000). In brief, 100% and 0% specific binding were defined independently using total binding and binding obtained in the presence of a high concentration of the reference antagonist, 2-NAP.

Ki	SMILES
50.1 nM	COc1ccc(-c2[nH]c(CC(C(=O)O)c3cccc(C(F)(F)F)c3)nc2-c2ccc(Cl)c(Cl)c2)cc1 (stereo not drawn) [Example 27, 3-[4-(3,4-Dichloro-phenyl)-5-(4-methoxy-phenyl)-1H-imidazol-2-yl]-2-(3-trifluoromethyl-phenyl)-propionic acid]
31.6 nM	COc1ccc(-c2[nH]c(CC(C(=O)O)c3cccc(C)c3)nc2-c2ccc(Cl)c(Cl)c2)cc1 (stereo not drawn) [Example 24, 3-[4-(3,4-Dichloro-phenyl)-5-(4-methoxy-phenyl)-1H-imidazol-2-yl]-2-m-tolyl-propionic acid]
31.6 nM	COc1ccc(-c2[nH]c(CC(C(=O)O)c3cccc(Cl)c3)nc2-c2ccc(Cl)c(Cl)c2)cc1 (stereo not drawn) [Example 25, 2-(3-Chloro-phenyl)-3-[4-(3,4-dichloro-phenyl)-5-(4-methoxy-phenyl)-1H-imidazol-2-yl]-propionic acid]
25.1 nM	Cc1ccc(/C(=C\c2nc(-c3cc(Cl)ccc3Cl)c(-c3ccc4c(c3)OCO4)[nH]2)C(=O)O)cc1 [Example 22, (E)-3-[5-Benzo[1,3]dioxol-5-yl-4-(2,5-dichloro-phenyl)-1H-imidazol-2-yl]-2-p-tolyl-acrylic acid]
2 nM	O=C(O)/C(=C\c1nc(-c2cc(Cl)ccc2Cl)c(-c2ccc3c(c2)OCO3)[nH]1)c1cccc(Cl)c1 [Example 1, (Z)-3-[5-Benzo[1,3]dioxol-5-yl-4-(2,5-dichloro-phenyl)-1H-imidazol-2-yl]-2-(3-chloro-phenyl)-acrylic acid]
79.4 nM	COc1ccc(-c2[nH]c(/C=C(/C(=O)O)c3cccc(C(F)(F)F)c3)nc2-c2ccc(Cl)c(Cl)c2)cc1 [Example 16, (E)-3-[4-(3,4-Dichloro-phenyl)-5-(4-methoxy-phenyl)-1H-imidazol-2-yl]-2-(3-trifluoromethyl-phenyl)-acrylic acid]
5.01 nM	COc1ccc(-c2[nH]c(/C=C(\C(=O)O)c3cccc(Cl)c3)nc2-c2ccc(Cl)c(Cl)c2)cc1 [Example 8, (Z)-2-(3-Chloro-phenyl)-3-[4-(3,4-dichloro-phenyl)-5-(4-methoxy-phenyl)-1H-imidazol-2-yl]-acrylic acid]
100 nM	COc1ccc(-c2[nH]c(/C=C(/C(=O)O)c3ccc(C)cc3)nc2-c2ccc(Cl)c(Cl)c2)cc1 [Example 14, (E)-3-[4-(3,4-Dichloro-phenyl)-5-(4-methoxy-phenyl)-1H-imidazol-2-yl]-2-p-tolyl-acrylic acid]
63.1 nM	COc1ccc(-c2[nH]c(/C=C(/C(=O)O)c3cccc(Cl)c3)nc2-c2ccc(Cl)c(Cl)c2)cc1 [Example 18, (E)-2-(3-Chloro-phenyl)-3-[4-(3,4-dichloro-phenyl)-5-(4-methoxy-phenyl)-1H-imidazol-2-yl]-acrylic acid]
10000 nM	O=C(O)C(Cc1nc(-c2ccc(F)cc2)c(-c2ccc(F)cc2)[nH]1)c1cccc2ccccc12 (stereo not drawn) [Example 34, 3-[4,5-Bis-(4-fluoro-phenyl)-1H-imidazol-2-yl]-2-naphthalen-1-yl-propionic acid]
20 nM	O=C(O)/C(=C/c1nc(-c2cc(Cl)ccc2Cl)c(-c2ccc3c(c2)OCO3)[nH]1)c1cccc(C(F)(F)F)c1 [Example 21, (E)-3-[5-Benzo[1,3]dioxol-5-yl-4-(2,5-dichloro-phenyl)-1H-imidazol-2-yl]-2-(3-trifluoromethyl-phenyl)-acrylic acid]
5.01 nM	O=C(O)/C(=C\c1nc(-c2cc(Cl)ccc2Cl)c(-c2ccc3c(c2)OCO3)[nH]1)c1cccc(C(F)(F)F)c1 [Example 7, (Z)-3-[5-Benzo[1,3]dioxol-5-yl-4-(2,5-dichloro-phenyl)-1H-imidazol-2-yl]-2-(3-trifluoromethyl-phenyl)-acrylic acid]
2.51 nM	O=C(O)/C(=C\c1nc(-c2cc(Cl)ccc2Cl)c(-c2ccc3c(c2)OCO3)[nH]1)c1cccc2ccccc12 [Example 4, (Z)-3-[5-Benzo[1,3]dioxol-5-yl-4-(2,5-dichloro-phenyl)-1H-imidazol-2-yl]-2-naphthalen-1-yl-acrylic acid]
79.4 nM	COc1ccc(-c2[nH]c(/C=C(/C(=O)O)c3ccc(Cl)cc3)nc2-c2ccc(Cl)c(Cl)c2)cc1 [Example 15, (E)-2-(4-Chloro-phenyl)-3-[4-(3,4-dichloro-phenyl)-5-(4-methoxy-phenyl)-1H-imidazol-2-yl]-acrylic acid]
20 nM	Cc1ccc(-c2nc(CC(C(=O)O)c3cccc(C)c3)[nH]c2-c2ccc(C)cc2)cc1 (stereo not drawn) [Example 30, 3-(4,5-Di-p-tolyl-1H-imidazol-2-yl)-2-m-tolyl-propionic acid]
398 nM	O=C(O)C(Cc1nc(-c2ccccc2Cl)c(-c2ccccc2Cl)[nH]1)c1cccc2ccccc12 (stereo not drawn) [Example 32, 3-[4,5-Bis-(2-chloro-phenyl)-1H-imidazol-2-yl]-2-naphthalen-1-yl-propionic acid]
5.01 nM	O=C(O)/C(=C\c1nc(-c2ccccn2)c(-c2ccc3ccccc3c2)[nH]1)c1cccc(Cl)c1 [Example 12, (Z)-2-(3-Chloro-phenyl)-3-(5-naphthalen-2-yl-4-pyridin-2-yl-1H-imidazol-2-yl)-acrylic acid]
3.98 nM	Cc1ccc(/C(=C/c2nc(-c3cc(Cl)ccc3Cl)c(-c3ccc4c(c3)OCO4)[nH]2)C(=O)O)cc1 [Example 6, (Z)-3-[5-Benzo[1,3]dioxol-5-yl-4-(2,5-dichloro-phenyl)-1H-imidazol-2-yl]-2-p-tolyl-acrylic acid]
15.8 nM	Cc1cccc(/C(=C\c2nc(-c3cc(Cl)ccc3Cl)c(-c3ccc4c(c3)OCO4)[nH]2)C(=O)O)c1 [Example 19, (E)-3-[5-Benzo[1,3]dioxol-5-yl-4-(2,5-dichloro-phenyl)-1H-imidazol-2-yl]-2-m-tolyl-acrylic acid]
2 nM	Cc1cccc(/C(=C/c2nc(-c3cc(Cl)ccc3Cl)c(-c3ccc4c(c3)OCO4)[nH]2)C(=O)O)c1 [Example 3, (Z)-3-[5-Benzo[1,3]dioxol-5-yl-4-(2,5-dichloro-phenyl)-1H-imidazol-2-yl]-2-m-tolyl-acrylic acid]
200 nM	COc1ccc(-c2[nH]c(/C=C(/C(=O)O)c3cccc4ccccc34)nc2-c2ccc(Cl)c(Cl)c2)cc1 [Example 13, (E)-3-[4-(3,4-Dichloro-phenyl)-5-(4-methoxy-phenyl)-1H-imidazol-2-yl]-2-naphthalen-1-yl-acrylic acid]
63.1 nM	COc1ccc(-c2[nH]c(CC(C(=O)O)c3ccc(Cl)cc3)nc2-c2ccc(Cl)c(Cl)c2)cc1 (stereo not drawn) [Example 28, 2-(4-Chloro-phenyl)-3-[4-(3,4-dichloro-phenyl)-5-(4-methoxy-phenyl)-1H-imidazol-2-yl]-propionic acid]
10 nM	COc1ccc(-c2[nH]c(/C=C(\C(=O)O)c3cccc(C(F)(F)F)c3)nc2-c2ccc(Cl)c(Cl)c2)cc1 [Example 10, (Z)-3-[4-(3,4-Dichloro-phenyl)-5-(4-methoxy-phenyl)-1H-imidazol-2-yl]-2-(3-trifluoromethyl-phenyl)-acrylic acid]
2510 nM	COc1cccc(-c2nc(CC(C(=O)O)c3cccc4ccccc34)[nH]c2-c2cccc(OC)c2)c1 (stereo not drawn) [Example 33, 3-[4,5-Bis-(3-methoxy-phenyl)-1H-imidazol-2-yl]-2-naphthalen-1-yl-propionic acid]
